The source of these data is publication PMC1887774 (The Journal of General Physiology, 1998).

Entries after “also recorded” stand apart in the source; their conditions may differ.

Assay [1] has as its target T1, rat brain type IIA sodium channels (F1489Q α subunit + wild-type β1) (Rattus norvegicus, UniProt P04775, F1489Q/N209D). Type of assay: biochemical, rat (expressed in Xenopus laevis oocytes).
Assay [2] addresses T1, rat brain type IIA sodium channels (F1489Q α subunit + wild-type β1). The assay is classed as biochemical, rat (expressed in Xenopus laevis oocytes). The source holds these as a separate data set.
For assay [3], the system named is cardiac sodium channel with mutations in M1651 and M1652. As to conditions: whole-cell recording, ref Tang et al. (1996), cited from earlier work.
The next assay relates to sodium channels. To be noted: ref Eaholtz et al., 1994, cited from earlier work.

T1 sequence (P04775 whole entry N209D/F1489Q): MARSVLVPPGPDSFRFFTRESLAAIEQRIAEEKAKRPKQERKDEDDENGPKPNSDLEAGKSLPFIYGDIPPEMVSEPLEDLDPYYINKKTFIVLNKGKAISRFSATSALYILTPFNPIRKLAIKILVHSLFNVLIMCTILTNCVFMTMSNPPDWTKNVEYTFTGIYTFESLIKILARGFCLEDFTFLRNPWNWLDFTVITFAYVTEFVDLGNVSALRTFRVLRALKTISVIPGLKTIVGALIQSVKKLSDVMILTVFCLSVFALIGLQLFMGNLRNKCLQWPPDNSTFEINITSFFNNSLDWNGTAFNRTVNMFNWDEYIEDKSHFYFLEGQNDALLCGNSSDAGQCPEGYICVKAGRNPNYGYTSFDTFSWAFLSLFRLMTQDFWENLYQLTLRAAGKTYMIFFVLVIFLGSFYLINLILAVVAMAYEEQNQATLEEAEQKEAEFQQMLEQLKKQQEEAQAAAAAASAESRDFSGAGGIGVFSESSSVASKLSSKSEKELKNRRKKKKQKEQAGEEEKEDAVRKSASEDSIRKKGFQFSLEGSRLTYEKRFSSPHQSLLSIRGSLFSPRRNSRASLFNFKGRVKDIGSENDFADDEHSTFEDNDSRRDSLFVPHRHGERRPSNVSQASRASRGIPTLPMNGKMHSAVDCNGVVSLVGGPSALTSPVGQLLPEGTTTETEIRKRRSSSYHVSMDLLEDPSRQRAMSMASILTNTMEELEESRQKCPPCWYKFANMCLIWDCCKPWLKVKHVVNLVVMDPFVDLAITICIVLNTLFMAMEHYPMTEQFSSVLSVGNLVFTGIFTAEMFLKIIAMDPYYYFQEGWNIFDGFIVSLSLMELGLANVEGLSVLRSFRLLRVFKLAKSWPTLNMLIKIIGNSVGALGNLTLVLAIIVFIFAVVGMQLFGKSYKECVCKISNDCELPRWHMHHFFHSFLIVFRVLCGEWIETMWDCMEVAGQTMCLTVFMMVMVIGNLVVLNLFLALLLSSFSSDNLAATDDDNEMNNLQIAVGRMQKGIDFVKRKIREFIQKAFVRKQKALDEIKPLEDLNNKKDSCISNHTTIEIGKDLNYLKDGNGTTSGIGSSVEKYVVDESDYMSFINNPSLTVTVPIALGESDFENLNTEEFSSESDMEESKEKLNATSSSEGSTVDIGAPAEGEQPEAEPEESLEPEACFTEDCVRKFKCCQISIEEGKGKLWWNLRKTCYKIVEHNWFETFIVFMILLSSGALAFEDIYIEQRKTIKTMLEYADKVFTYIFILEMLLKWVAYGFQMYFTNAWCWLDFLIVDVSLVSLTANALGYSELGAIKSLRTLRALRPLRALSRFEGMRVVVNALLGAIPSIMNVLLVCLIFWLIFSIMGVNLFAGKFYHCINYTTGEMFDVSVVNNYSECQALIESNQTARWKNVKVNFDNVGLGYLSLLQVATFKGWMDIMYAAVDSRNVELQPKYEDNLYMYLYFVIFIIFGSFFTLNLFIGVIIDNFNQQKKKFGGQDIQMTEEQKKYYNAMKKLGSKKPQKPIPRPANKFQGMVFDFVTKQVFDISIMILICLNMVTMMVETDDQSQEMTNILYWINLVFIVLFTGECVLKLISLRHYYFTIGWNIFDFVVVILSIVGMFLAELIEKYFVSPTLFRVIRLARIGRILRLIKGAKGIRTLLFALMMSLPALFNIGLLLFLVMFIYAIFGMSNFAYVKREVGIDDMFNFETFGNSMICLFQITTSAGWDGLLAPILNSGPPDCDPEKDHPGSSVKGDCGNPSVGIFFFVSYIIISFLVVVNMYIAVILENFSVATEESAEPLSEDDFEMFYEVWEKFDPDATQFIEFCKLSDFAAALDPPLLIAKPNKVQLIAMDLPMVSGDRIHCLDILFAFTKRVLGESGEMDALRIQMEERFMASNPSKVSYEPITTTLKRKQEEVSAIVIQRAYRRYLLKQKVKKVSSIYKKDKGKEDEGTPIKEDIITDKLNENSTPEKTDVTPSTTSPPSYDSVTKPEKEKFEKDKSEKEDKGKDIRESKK
T1 sequence (Q00954 19-218 partner): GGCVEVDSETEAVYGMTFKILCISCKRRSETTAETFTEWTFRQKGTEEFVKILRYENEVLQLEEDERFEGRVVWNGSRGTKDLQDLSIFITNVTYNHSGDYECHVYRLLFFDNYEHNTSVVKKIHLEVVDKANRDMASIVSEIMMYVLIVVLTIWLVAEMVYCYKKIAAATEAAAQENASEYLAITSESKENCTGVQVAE

On to `CC[C@H](C)[C@H](NC(=O)[C@H](CCCCN)NC(C)=O)C(=O)N[C@@H](Cc1ccccc1)C(=O)N[C@@H](CCSC)C(=O)N[C@@H](CCCCN)C(N)=O` [KIFMK, acetyl-KIFMK-NH2], for which the “block of the steady state sodium current” value in assay [1] (100 μM KIFMK, voltage step from −100 to 0 mV) is given as > 70%. For the same molecule, the koff in assay [1] (read-out: unblocking rate k u (= k off)) is 342 ± 21 s⁻¹. The “shift of the I-V relationship” value in assay [2] (100 μM KIFMK compared with no peptide control, test voltages −80 to 110 mV) was “negative shift of the I-V relationship”. For the same molecule, in assay [2] (100 μM KIFMK, −30 to 30 mV), the “voltage dependence of unblocking (off) rates” value is reported as “voltage independent; also recorded: not affected by voltage; also recorded: no voltage dependence”. Also, the “mean unblocking rate k u over the voltage range” value in assay [2] (100 μM KIFMK, −30 to 30 mV, mean ± SEM, n = 4) came out at 336 ± 14 s⁻¹. In addition, the “voltage constant of blocking rate fit, exp^(V/43 mV)” value in assay [2] (100 μM KIFMK, e-fold factor of k b (Fig. 3 B) and k on (Scheme 1)) is 43 mV. In addition, the “extent of the electric field traversed by the lysine charges” value in assay [2] (if both charges enter the electric field to an equivalent extent) stood at 30%. Also, the “K d from ratio of the on and off rates” value in assay [3] (outward sodium currents) is ~30 µM. Moreover, in assay [3], the “dependence of the on rate on peptide concentration” value is “deviated significantly from linearity” and the “voltage dependence of block rate” value was “no voltage dependence of block rate was detected”. The types of block entry in the assay with sodium channels (cytoplasmic application) was “a rapid block, which occurs in milliseconds and resembles inactivation in kinetics and voltage dependence, and a cumulative, use-dependent block, which occurs during repetitive high voltage pulses”. Moreover, in the assay with sodium channels, the slow block entry is listed as “slow block that occurs at voltages more depolarized than 0 mV” and the “state preference of block” value was “appears to preferentially block open channels”.
